Like-named read-outs stand apart in the source and are kept apart here.
Experiments:
[1] = system: SARS-CoV-2 hCoV-19/Australia/VIC01/2020 (lineage B); experiment: Reduction of cytopathic effect on Vero E6 cells, MTT, strain hCoV-19/Australia/VIC01/2020; type: cell-based
in vitro = conditions: African green monkey
[2] = MTT cytotoxicity assay in TZM-bl cells; type: cell-based; conditions: human; TZM-bl cells, MTT test, 72 h incubation
Protocol: (§1) The cytotoxicity of the obtained compounds was assessed in TZM-bl cells using the MTT test. The preparations were diluted with DMEM medium so that their starting concentration was 1000 μM and the final volume of DMSO was no more than 1%. Additionally, we compared the cytotoxicity of DMEM and medium with 1% DMSO in TZM-bl cells and found no significant differences in cell survival. […] A range of non-toxic concentrations was determined for each compound and used in subsequent experiments on their antiviral activity.
(§2) TZM-bl cells were seeded into 96-well culture plates (100 μL of cell suspension or 10^4 p cells per well) and placed in a CO2 incubator. The test compounds were dissolved in DMSO at a concentration of 100 mM. After 24 h of incubation, various concentrations of the test compounds (1000, 500, 250, 125, 62.5, 31.25, and 15.6 μM) were added by titration to the TZM-bl cell culture, in triplicates. DMSO was added to the control wells at a concentration of no more than 1%. The plates with the introduced drugs were incubated in a CO2 incubator at 37 °C under 5% CO2. After 72 h of incubation, 20 μL of MTT working solution (5 mg/mL) was added to each well and the plates were again incubated under the same conditions. After 2 h, the plates were removed from the CO2 incubator, and the medium in each well was replaced with DMSO solution (50 μL per well). The plates were shaken gently to dissolve the formazan crystals. The optical density of each well was determined at 570 nm using a Varioscan LUX plate reader (Thermo scientific). The survival rate of TZM-bl cells in the presence of the tested compounds was calculated using the formula: (OD of experimental wells—OD of medium)/(OD of control wells—OD of medium) × 100%, where OD is optical density.

TZM-bl cells = experiment: MTT cytotoxicity assay in TZM-bl cells; type: cell-based; conditions: MTT test
Protocol: as §1, §2

[3] = system: HIV-1 pseudotyped viruses; experiment: Inhibitory activity against HIV-1 pseudoviruses in TZM-bl cells (summary statements); type: cell-based; conditions: neutralizing assays, SF162.LS, QH0692, 16RU28
Protocol: To evaluate the inhibitory activities of the synthesized compounds, HIV-1 pseudotyped viruses SF162.LS and […] subtype B (which are included in the international reference panel), and pseudotyped viruses of the recombinant form CRF63_02A—16RU28 HIV-1 were used. Genetic variant CRF63_02A is currently the dominant type in Siberia and is rapidly spreading in the rest of the Russian Federation.
The anti-HIV-1 activity of the tested compounds was performed using the TZM-bl assay, carried out in 96-well culture plates, as described previously. Briefly, serial 2-fold dilutions of the tested compounds were prepared in DMEM growth medium, 200 TCID50 pseudovirus were added to each well and incubated for 1 h at 37 °C under 5% CO2. Trypsinized TZM-bl cell suspension was then added (100 μL of 2 × 10^5 cells/mL) and plates were further incubated at 37 °C under 5% CO2. After 48 h, the luminescence signal was recorded using the luciferase assay system (Promega). The percent inhibition for each compound was calculated as the ratio between the relative luminescence unit (RLU) values of the test wells (sample + pseudovirus + cells) and the virus control (pseudovirus + cells). Samples were tested in triplicates, and the experiment was repeated twice.

[4] = system: SARS-CoV-2 (three strains); experiment: Antiviral activity against three strains of SARS-CoV-2 on Vero E6 cells (summary statements)
[5] = system: HIV-1 pseudotyped virus SF162.LS (subtype B); experiment: TZM-bl neutralization assay with HIV-1 env-pseudovirus SF162.LS; type: cell-based; conditions: read-out: IC50 SF162.LS, TZM-bl cells, luciferase after 48 h
[6] = system: HIV-1 pseudotyped virus OH0692 (subtype B); experiment: TZM-bl neutralization assay with HIV-1 env-pseudovirus OH0692; type: cell-based; conditions: read-out: IC50 OH0692; HIV-1 env-pseudovirus OH0692, TZM-bl cells, luciferase after 48 h
[7] = system: HIV-1 pseudotyped virus 16RU28 (recombinant form CRF63_02A); experiment: TZM-bl neutralization assay with HIV-1 env-pseudovirus 16RU28; type: cell-based; conditions: read-out: IC50 16RU28; HIV-1 env-pseudovirus 16RU28 (CRF63_02A), TZM-bl cells, luciferase after 48 h

| Compound | IC50 ([1]; Severe acute respiratory syndrome coronavirus 2, Vero C1008, 96 h, Vero E6 cells, 100 TCD50 per well, 4 days, MTT, lineage B, read-out: IC50 hCoV-19/Aust/VIC01/2020) [µM] | IC50 ([1]; Vero C1008, SARS-CoV 2 (B), SOFTmax PRO 4.0, primary data, read-out: parameter C of 4-parameter fit, activity curve) [µg/mL] | parameter C of 4-parameter fit, toxity curve (Vero E6 cells; SOFTmax PRO 4.0, primary data, plate with strain B) | CC50 at 4 days (in vitro; Vero E6 cells) [µM] | CC50 at 72 h [2] [µM] | toxicity against the TZM-bl cell line (in words) (TZM-bl cells) | inhibitory activity against HIV-1 pseudotyped viruses (in words) [3] | cytotoxicity on Vero cells (in words) (Vero E6 cells) | CC50 (in vitro) [µM] | antiviral activity against the three coronavirus strains (in words) [4] | IC50 [5] [nM] | IC50 [6] [nM] | IC50 [7] [nM] |
| --- | --- | --- | --- | --- | --- | --- | --- | --- | --- | --- | --- | --- | --- |
| CCC(CC)COC(=O)[C@H](C)N[P@](=O)(OC[C@H]1O[C@@](C#N)(c2ccc3c(N)ncnn23)[C@H](O)[C@@H]1O)Oc1ccccc1 [Remdesivir] | 3.3 ± 0.12 | 2020 | 428,695 µg/ml | 711 ± 21.2 | – | – | – | – | – | – | – | – | – |
| CC1(C)[C@@H](O[C@H]2O[C@H](C(=O)O)[C@@H](O)[C@H](O)[C@H]2O[C@@H]2O[C@H](C(=O)O)[C@@H](O)[C@H](O)[C@H]2O)CC[C@]2(C)[C@H]3C(=O)C=C4[C@@H]5C[C@@](C)(C(=O)O)CC[C@]5(C)CC[C@@]4(C)[C@]3(C)CC[C@@H]12 [Glycyrrhizin] | – | – | – | – | > 1000 | negligible toxicity | did not exhibit any inhibitory activity | no cytotoxicity | > 1000 | no antiviral activity | – | – | – |
| Maraviroc [MVC] | – | – | – | – | – | – | – | – | – | – | 2 | 2 | 1.6 |
| CC1(C)C2CC[C@]3(C)C(C(=O)C=C4[C@@H]5C[C@@](C)(C(=O)O)CC[C@]5(C)CC[C@]43C)[C@@]2(C)CC[C@@H]1OC(=O)c1cccnc1 (stereo partly shown) [Nic-GA, glycyrrhetinic acid nicotinate] | – | – | – | – | < 7.8 | some cytotoxic activity | lack of inhibition | less toxic to Vero cells than to Tzm-bl cells | 101 | did not exhibit any antiviral activity | – | – | – |
